Key:
[1] = system: MRC-9 diploid fibroblast cells; test: 3H-thymidine incorporation growth assay in normal cells; type: cell-based; settings: MRC-9 vs tumor cells; FIG. 9
Method: In a second experiment, the efficacy of treatment of normal cells (MRC-9 cells) was compared with tumor cells (FIG. 9). In this experiment, growth was assayed as ^3H-thymidine incorporation rather than the MTT assay. […] As would be expected, the effect of tumor suppressor alone was negligible in normal cells and highly significant in tumor cells.

[2] = system: SK-OV-3 ovarian tumor cells; test: MTT cell death assay, p53 adenovirus combined with anti-cancer drug; type: cell-based, human; settings: FIG. 1, TAXOL 0.001-20 μg/ml, p53 Ad 0.5-50 m.o.i., MTT on day 3
Method: In treatment three, the cells were contacted simultaneously with both the TAXOL® and the p53 adenovirus. Thus, the p53 Ad and TAXOL® can be administered within the same twenty four (24) hour period or concurrently.
Approximately 1.5×10^4 cells in culture medium (head and neck cell lines SCC-9, SCC-15, and SCC-25 in 1:1 mix of DMEM+ Ham's F12 media with 0;4 μg/ml cortisol and 10% FBS and 1% non-essential amino acids, prostate DU-145 and Ovarian SK-OV-3 in Eagles essential medium plus 10% FBS) were added to each well on a 96 well microtitre plate and cultured for about 4 hours at 37° C. and 5% CO2.
Cell death was then quantitated according to the method of Mosmann (1983) J. Immunol. Meth., 65: 55–63.
Dosing was performed as described above. Cell death was quantitated on day 3 using the MTT assay as described above. In addition, a dose response curve for p53 Ad alone (using the doses listed in Table 2) was generated (after […] cell exposure to the drug) and a dose response curve for TAXOL® alone was performed using the doses listed above (3 day cell exposure to the drug).
All cell lines were obtained from ATCC (Rockville, Md.). […]

[3] = system: intraperitoneal SK-OV-3 tumors; test: SK-OV-3 ovarian tumor model, cisplatin efficacy; type: in vivo, scid mice; settings: day 20
Method: There were normally ten mice per group.
Established intraperitoneal SK-OV-3 tumors were treated with intraperitoneal doses of vehicles, p53 Ad, cisplatin, or both drugs. Mice were given six injections of p53 Ad over a period of two weeks. The total virus dose was 1.5×10^9 C.I.U. (3.1×10^10 viral particles).
Cisplatin efficacy: Female scid mice were injected with 5×10^6 SK-OV-3 ovarian tumor cells, I.P., on day 0. Mice were dosed I.P. on days 6, 8, 10, 13, 15, and 17 (p53 Ad only on D17). Mice received 0.2 ml total volume (0.1 ml cisplatin vehicle or cisplatin plus 0.1 ml Ad buffer or p53 Ad). The p53 Ad dose was 2.5×10^8 C.I.U./mouse/day (5.2×10^9 viral particles). The cisplatin dose was 2 mg/kg/day. Tumors were harvested and weighed on day 20.

MDA-MB-231 tumors = test: Tumor growth with adenovirus in the absence or presence of low dose dexamethasone; settings: s.c. pellet releasing 83.3 μg dexamethasone/day
Method: To investigate whether the immunosuppressant properties of low dose Dexamethasone (Dex) can inhibit the anti-adenovirus immune response (e.g., NK cell response) MDA-MB-231 tumors in scid mice were treated with recombinant virus of the invention in the absence and in the presence of dexamethasone.
Approximately 5×10^6 MDA-MB-231 cells/mouse were injected into the mammary fat pads of female scid mice on day 0. On day 11, dexamethasone or placebo pellets were implanted subcutaneously. The 5 mg pellets were designed to release 83.3 μg dexamethasone/day continuously for 60 days (Innovative Research of America, Sarasota, Fla.). All mice received a total of 10 peritumoral injections given once a day on days 14–18 and 21–25 (0.1 ml per injection).

| Compound | effect of anti-cancer chemotherapeutic alone, normal vs cancer cells [1] | other results |
| --- | --- | --- |
| O=c1[nH]cc(F)c(=O)[nH]1 [5-FU, 5-fluorouracil] | more effective in normal cells than cancer cells | – |
| CC(=O)O[C@H]1C(=O)[C@@]2(C)[C@H]([C@H](OC(=O)c3ccccc3)[C@]3(O)C[C@H](OC(=O)[C@H](O)[C@@H](NC(=O)c4ccccc4)c4ccccc4)C(C)=C1C3(C)C)[C@]1(OC(C)=O)CO[C@@H]1C[C@@H]2O [TAXOL ®, paclitaxel] | – | inhibition of cell proliferation (as compared to the buffer control) [2]: decreased the rate of cell proliferation |
| N.N.[Cl][Pt][Cl] [cisplatin] | more effective in normal cells than cancer cells | bloody ascites and invasive tumor nodules in the diaphragm muscle [3]: absent |
| C[C@@H]1C[C@H]2[C@@H]3CCC4=CC(=O)C=C[C@]4(C)[C@@]3(F)[C@@H](O)C[C@]2(C)[C@@]1(O)C(=O)CO [dexamethasone] | – | adverse side effects (MDA-MB-231 tumors): No adverse side effects; effect on the growth rate of tumors (MDA-MB-231 tumors): no significant effect |
| COc1cccc2c1C(=O)c1c(O)c3c(c(O)c1C2=O)C[C@@](O)(C(=O)CO)C[C@@H]3O[C@H]1C[C@H](N)[C@H](O)[C@H](C)O1 [doxorubicin] | more effective in normal cells than cancer cells | – |
| COc1cc([C@@H]2c3cc4c(cc3[C@@H](O[C@@H]3O[C@@H]5CO[C@@H](C)O[C@H]5[C@H](O)[C@H]3O)[C@H]3COC(=O)[C@H]23)OCO4)cc(OC)c1O [etoposide] | more effective in normal cells than cancer cells | – |
| CN(Cc1cnc2nc(N)nc(N)c2n1)c1ccc(C(=O)N[C@@H](CCC(=O)O)C(=O)O)cc1 [methotrexate] | more effective in normal cells than cancer cells | – |
